Measured values taken from US6903132B2, “Non-peptide GnRH agents, pharmaceutical compositions and methods for their use” (Agouron Pharmaceuticals, Inc., priority 2002, dated 2005).
pKi: −log10 of the molar value.

Assays:
Assay in all cases: Radioligand binding assay: inhibition of binding of 125I-GnRH-A to GnRH receptors (membranes)
rat GnRH receptor = molecular target: T1, rat GnRH receptor (Rattus norvegicus, UniProt P30969); conditions: competition with 125I-GnRH-A, Ki calculated from IC50 (Cheng et al.)
T1 construct: rat pituitaries (Pel Freez Biologicals, Rogers, Ark.) are homogenized in buffer A; tissue Pel Freez Biologicals; host or cells: rat pituitaries
T1 sequence (P30969 1-327): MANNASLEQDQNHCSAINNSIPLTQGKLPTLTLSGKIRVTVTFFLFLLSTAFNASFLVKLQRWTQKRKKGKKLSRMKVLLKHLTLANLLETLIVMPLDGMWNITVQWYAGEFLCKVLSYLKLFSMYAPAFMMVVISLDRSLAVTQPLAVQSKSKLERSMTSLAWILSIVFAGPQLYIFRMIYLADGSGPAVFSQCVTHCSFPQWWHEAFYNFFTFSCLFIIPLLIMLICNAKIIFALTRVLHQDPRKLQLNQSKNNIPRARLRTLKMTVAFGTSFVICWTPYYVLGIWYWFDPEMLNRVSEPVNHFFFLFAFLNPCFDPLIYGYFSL
Method: (§1) HEK 293 cells stably transfected with mouse or human GnRH receptors as described above are grown in Dulbecco's high-glucose, modified Eagle's medium (DMEM) supplemented with 0.2% G418, 10% fetal bovine serum (FBS) and 100U/mL penicillin/streptomycin. GH3 cells stably transfected with the rat GnRH receptor (GGH3) were provided by Dr. William Chin (Harvard Medical School, Boston, Mass.). These cells are extensively characterized previously (Kaiser et al., 1997). The cells are grown in low glucose DMEM containing: 100U/mL penicillin/streptomycin, 0.6% G418 and 10% heat-inactivated FBS.
(§2) HEK 293 cells containing mouse or human receptors, or rat pituitaries (Pel Freez Biologicals, Rogers, Ark.) are homogenized in buffer A containing: 50 mM Tris (pH 7.4), 0.32 M sucrose, 2 mM EGTA, 1 mM PMSF, 5 μg/ml aprotinen, 5 μg/ml Pepstatin A, and 1 μg/ml leupeptin. Homogenized cells are centrifuged at 4° C. at 20,000×g for 25 minutes, re-suspended in buffer A and re-centrifuged at 4° C. at 20,000×g for an additional 25 minutes. Total membrane protein was determined with a BCA kit (Pierce, Rockford, Ill.). Membranes are stored at −70° C. at a final membrane protein concentration of approximately 5 mg/ml.
(§3) The radioiodinated agonist analog of GnRH, [des-Gly^10, D-Ala^6]GnRH ethylamide (^125I-GnRH-A), is used as the radioligand. One μg of GnRH-A diluted in 0.5 M phosphate buffer (pH 7.4) is added to an lodogen®-coated borosilicate glass tube (Pierce, Rockford, Ill.) containing 35 μl of 0.05 M phosphate buffer (pH 7.4-7.6) and 1 mCi of Na[^125I]. The reaction mixture is vortexed and incubated for 1 minute at room temperature. After one minute, the mixture is vortexed and allowed to incubate for an additional minute. 2 ml of 0.5 M acetic acid/1% BSA is added to the reaction tube and the mixture is added to a C18 Sep-Pak cartridge. The cartridge is washed with subsequent washes of 5 ml H2O and 5 ml 0.5 M acetic acid and then eluted with 5×1 ml of 60%CH3CN/40% 0.5 M acetic acid. The eluate is diluted with 3× volume of HPLC buffer A (0.1% TFA in H2O) and loaded onto a C18 column. The iodinated product is eluted over 20-25 min with a gradient of 25-100% CH3CN containing 0.1% TFA. The radioactive fractions (750 μl/fraction) are collected into clean polypropylene tubes containing 100 μl of 10% BSA. Fractions are assessed for biological activity by radiolig and binding. Specific activity of the radioligand was approximately 2200 Ci/mmol.
(§4) Membranes are diluted to 0.01-0.5 mg/ml (depending upon the species of receptor) with assay buffer containing 50 mM HEPES (pH 7.4), 1 mM EDTA, 2.5 mM MgCl2, and 0.1% BSA. Membranes (diluted to utilize similar receptor numbers between assays) are incubated with approximately 0.04-0.06 nM ^125I-GnRH-A in the presence or absence of competing agents (0.1-10,000 nM) in a total volume of 200 μl in 96-well polypropylene plates for 1 hour at room temperature. Assays are stopped by rapid filtration onto 96-well GF/C filters soaked in 0.1% polyethylenimine (PEI) utilizing a Packard 96-well cell harvester. Filters are washed three times with ice-cold PBS (50 mM NaPO4, 0.9% NaCl, 2 mM MgCl2, and 0.02% NaN3, pH 7.4). 35 μl of scintillation cocktail is added to each filter well and filters are counted on a Packard Topcount. Control dose-response curves are generated to GnRH (0.1 nM-100 nM) in each competition binding experiment. Ki values were calculated from IC50 values according to Cheng et al., Biochemical Pharmacol. 22: 3099-3108, 1973. [formula]

mouse GnRH receptors = molecular target: T2, mouse GnRH receptors (Mus musculus, UniProt Q01776); conditions: Mouse GnRH receptor; competition with 125I-GnRH-A; Ki calculated from IC50 (Cheng et al.)
T2 construct: expressed in transfected cells; host or cells: HEK 293
T2 sequence (Q01776 1-327): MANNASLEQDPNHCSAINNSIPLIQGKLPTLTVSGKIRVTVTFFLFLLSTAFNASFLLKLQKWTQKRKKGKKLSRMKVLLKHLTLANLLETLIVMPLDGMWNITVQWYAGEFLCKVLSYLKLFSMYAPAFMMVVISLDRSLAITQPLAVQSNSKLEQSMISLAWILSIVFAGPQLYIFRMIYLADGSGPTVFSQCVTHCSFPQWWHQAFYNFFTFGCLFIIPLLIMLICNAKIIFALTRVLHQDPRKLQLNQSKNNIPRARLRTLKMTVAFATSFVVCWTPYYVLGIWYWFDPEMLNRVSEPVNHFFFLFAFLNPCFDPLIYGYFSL
Method: as §1, §2, §3, §4

human GnRH receptors = molecular target: T3, human GnRH receptors (Homo sapiens, UniProt P30968); conditions: Human GnRH receptor; competition with 125I-GnRH-A; Ki calculated from IC50 (Cheng et al.)
T3 construct: expressed in transfected cells; host or cells: HEK 293
T3 sequence (P30968 1-328): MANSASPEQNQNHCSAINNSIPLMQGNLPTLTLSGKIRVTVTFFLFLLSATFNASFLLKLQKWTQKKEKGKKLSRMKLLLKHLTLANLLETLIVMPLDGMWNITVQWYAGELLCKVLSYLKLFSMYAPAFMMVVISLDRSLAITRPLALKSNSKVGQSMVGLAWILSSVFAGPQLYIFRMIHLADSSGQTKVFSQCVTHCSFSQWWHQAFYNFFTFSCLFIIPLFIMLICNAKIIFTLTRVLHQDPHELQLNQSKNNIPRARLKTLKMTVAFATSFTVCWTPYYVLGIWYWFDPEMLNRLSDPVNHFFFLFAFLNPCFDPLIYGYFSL
Method: as §1, §2, §3, §4

| pKi (rat GnRH receptor) | pKi (mouse GnRH receptors) | pKi (human GnRH receptors) | SMILES |
| --- | --- | --- | --- |
| 7.66 | 8.30 | 8.38 | Cc1cc2c(cc1Oc1ccc(C(=O)NNc3cc(C)c4c(C)nn(C)c4n3)o1)C(C)(C)CCC2 [Example I21, N′-(1,3,4-trimethyl-1H-pyrazolo[3,4-b]pyridin-6-y)-5-[(3,8,8-trimethyl-5,6,7,8-tetrahydro-2-naphthalenyl)oxy]-2-furohydrazide] |
| 6.64 | 6.49 | 6.85 | COc1ccc(C(C)(C)C)cc1Cc1ccc(C(=O)NNc2cc(C)c3c(C)nn(C)c3n2)o1 [Example J19, 5-[5-(tert-butyl)-2-methoxybenzyl]-N′-(1,3,4-trimethyl-1H-pyrazolo[3,4-b]pyridin-6-yl)-2-furohydrazide] |
| 7.30 | 7.37 | 7.15 | Cc1ccc(C(C)(C)C)cc1Oc1ccc(C(=O)NNc2ccc3ccccc3n2)o1 [Example I17, 5-(5-tert-Butyl-2-methyl-phenoxy)-furan-2-carboxylic acid N′-quinolin-2-yl-hydrazide] |
| 6.27 | 6.87 | 7.10 | Cc1cc2c(cc1Oc1oc(C(=O)NNc3cc(C)c4c(C)nn(C)c4n3)cc1Br)C(C)(C)CCC2(C)C [Example F3, 4-Bromo-5-[(3,5,5,8,8-pentamethyl-5,6,7,8-tetrahydro-2-naphthalenyl)oxy]-N′-[1,3,4-trimethyl-1H-pyrazolo[3,4-b]pyridin-6-yl)-2-furohydrazide] |
| 7.60 | 7.85 | 8.08 | Cc1cc(NNC(=O)c2ccc(Oc3cc4c(cc3Cl)NCCC4(C)C)o2)nc2c1c(C)nn2C [Example I26, 5-(7-Chloro-4,4-dimethyl-1,2,3,4-tetrahydro-quinolin-6-yloxy)-furan-2-carboxylic acid N′-(1,3,4-trimethyl-1H-pyrazolo[3,4-b]pyridin-6-yl)-hydrazide] |
| 7.66 | 8.09 | 8.89 | Cc1cc(NNC(=O)c2ccc(Cc3cc4c(cc3Cl)C(C)(C)CCC4(C)C)o2)nc2c1c(C)nn2C [Example C4, 5-[(3-chloro-5,5,8,8-tetramethyl-5,6,7,8-tetrahydro-2-naphthalenyl)methyl]-N′-(1,3,4-trimethyl-1H-pyrazolo[3,4-b]pyridin-6-yl)-2-furohydrazide] |
| 6.43 | 7.66 | 7.52 | Cc1cc(Cl)c(C(C)C)cc1Oc1ccc(C(=O)NNc2cc(C)c3c(C)nn(C)c3n2)o1 [Example I23, 5-(4-Chloro-5-isopropyl-2-methyl-phenoxy)-furan-2-carboxylic acid N′-(1,3,4-trimethyl-1H-pyrazolo[3,4-b]pyridin-6-yl)-hydrazide] |
| 7.41 | 7.36 | 7.77 | Cc1ccc(C(C)(C)C)cc1Oc1ccc(C(=O)NNc2cc(C)c3c(C)nn(C)c3n2)o1 [Example I19, 5-(5-tert-Butyl-2-methyl-phenoxy)-furan-2-carboxylic acid N′-(1,3,4-trimethyl-1H-pyrazolo[3,4-b]pyridin-6-yl)-hydrazide] |
| 7.77 | 7.96 | 8.55 | Cc1cc2c(cc1Oc1ccc(C(=O)NNc3cc(C)c4c(C)nn(C)c4n3)o1)C(C)(C)CC2 [Example I7, 5-(3,3,6-Trimethyl-indan-5-yloxy)-furan-2-carboxylic acid N′-(1,3,4-trimethyl-1H-pyrazolo[3,4-b]pyridin-6-yl)-hydrazide] |
| 6.91 | 6.63 | 7.01 | Cc1ccc(C2CCCCC2)cc1Cc1ccc(C(=O)NNc2cc(C)c3c(C)nn(C)c3n2)o1 [Example J16, 5-(5-cyclohexyl-2-methylbenzyl)-N′-(1,3,4-trimethyl-1H-pyrazolo[3,4-b]pyridin-6-yl)-2-furohydrazide] |
| 8.38 | 8.44 | 8.62 | Cc1cc2c(cc1Oc1ccc(C(=O)NNc3cc(C)c4c(C)nn(C)c4n3)o1)C(C(C)C)C(C)C2(C)C (centres unmarked) [Example I2, 5-(3-lsopropyl-1,1,2,6-tetramethyl-indan-5-yloxy)-furan-2-carboxylic acid N′-(1,3,4-trimethyl-1H-pyrazolo[3,4-b]pyridin-6-yl)-hydrazide] |
| 7.19 | 7.24 | 7.31 | Cc1cc2c(c(O)c1Oc1ccc(C(=O)NNc3cc(C)c4c(C)nn(C)c4n3)o1)C(C)(C)CCC2(C)C [Example I29, 5-(1-Hydroxy-3,5,5,8,8-pentamethyl-5,6,7,8-tetrahydro-naphthalen-2-yloxy)-furan-2-carboxylic acid N′-(1,3,4-trimethyl-1H-pyrazolo[3,4-b]pyridin-6-yl)-hydrazide] |
| 5.95 | 6.40 | 6.89 | COc1c(C(C)C)cc(Cl)c(C)c1Cc1ccc(C(=O)NNc2cc(C)c3c(C)nn(C)c3n2)o1 [Example J24, 5-(3-chloro-5-isopropyl-6-methoxy-2-methylbenzyl)-N′-(1,3,4-trimethyl-1H-pyrazolo[3,4-b]pyridin-6-yl)-2-furohydrazide] |
| 6.62 | 6.89 | 6.66 | Cc1cc(C(F)(F)F)cc(NNC(=O)c2ccc(Cc3cc4c(cc3C)C(C)(C)CCC4(C)C)o2)n1 [Example C13, N′-[6-methyl-4-(trifluoromethyl)-2-pyridinyl]-5-[(3,5,5,8,8-pentamethyl-5,6,7,8-tetrahydro-2-naphthalenyl)methyl]-2-furohydrazide] |
| 7.28 | – | 8.00 | Cc1cc2c(c(Br)c1Oc1ccc(C(=O)NNc3cc(C)c4c(C)nn(C)c4n3)o1)C(C)(C)CC2 [Example I22, 5-(4-Bromo-3,3,6-trimethyl-indan-5-yloxy)-furan-2-carboxylic acid N′-(1,3,4-trimethyl-1H-pyrazolo[3,4-b]pyridin-6-yl)-hydrazide] |
